Assay results as given in US6342501B1, “Pyrrolo[2,3-d] pyrimidines as antiviral agents” (The Regents of the University of Michigan, priority 1994, dated 2002).
Like-named read-outs stand apart in the source and are kept apart here.

Assays:
[1] = tested on: KB cells; test: Cytotoxicity: KB cell growth (crystal violet staining); format: cell-based; settings: Homo sapiens, read-out: KBgrv
Experimental: (§1) Two different assays were used to explore cytotoxicity of selected compounds: (i) Cytotoxicity produced in stationary HFF cells was determined by microscopic inspection of cells used in plaque assays which were not affected by the virus [Turk, S. R., et al, Antimicrob.
Briefly, 96-well cluster dishes were planted with KB cells at 3000-5000 cells per well. After overnight incubation at 37° C., test compound was added in quadruplicate at six to eight concentrations. Plates were incubated at 37° C for 48 hours in a CO2 incubator, rinsed, fixed with 95% ethanol, and stained with 0.1% crystal violet. Acidified ethanol was added and plates read at 570 nm in a spectrophotometer designed to read 96-well ELISA assay plates.
(§2) Dose-response relationships were constructed by linearly regressing the percent inhibition of parameters derived in the preceding sections against logarithm 10 drug concentrations. […] Samples containing positive controls (acyclovir for HSV-1 and ganciclovir for HCMV) were used in all assays.

[2] = tested on: human foreskin fibroblasts (HFF cells); test: Cytotoxicity in stationary HFF cells (microscopic inspection of plaque assay cells); format: cell-based; settings: read-out: HFF
Experimental: as §1, §2

[3] = tested on: herpes simplex virus type 1 (HSV-1); test: HSV-1 ELISA in BSC-1 cells; format: cell-based, KOS strain; settings: read-out: HSV-1
Experimental: (§3) The routine growth and passage of KB and BSC-1 cells was performed in monolayer cultures using minimal essential medium (MEM) with either Hanks salts [MEM(H)] or Earle salts [MEM(E)] supplemented with 10% calf serum. The sodium bicarbonate concentration was varied to meet the buffering capacity required. Cultures of diploid human foreskin fibroblast (HFF) or MRC-5 cells were grown in medium consisting of MEM(E) with 10% fetal bovine serum. Cells were passaged at 1:2 to 1:10 dilutions according to conventional procedures by using 0.05% trypsin plus 0.02% EDTA in a HEPES buffered salt solution (HBS) [Shipman, C., Jr., Proc. Soc. […] HFF and MRC-5 cells were passaged only at 1:2 dilutions. The Towne strain, plaque-purified isolate Po, of HCMV was kindly provided by Dr. Mark Stinski, University of Iowa. The KOS strain of HSV-1 was used in most experiments and was provided by Dr. Sandra K. Weller, University of Conn.
High titer HSV-1 stocks were prepared by infecting BSC cells at an m.o.i. of <0.1 as detailed previously [Turk, S. R., et al., Antimicrob.
Ninety-six-well cluster dishes were planted with 10,000 BSC-1 cells per well in 200 μL per well of MEM(E) plus 10% calf serum. After overnight incubation at 37° C., selected drug concentrations in quadruplicate and HSV-1 at a concentration of 100 p.f.u./well were added. Following a 3-day incubation at 37° C., medium was removed, plates were blocked, rinsed, and horse radish peroxidase conjugated rabbit anti-HSV-1 antibody was added. Following removal of the antibody containing solution, plates were rinsed, and then developed by adding 150 μL per well of a solution of tetramethylbenzidine as substrate. The reaction was stopped with H2SO4 and absorbance was read at 450 and 570 nm. Drug effects were calculated as a percentage of the reduction in absorbance in the presence of each drug concentration compared to absorbance obtained with virus in the absence of drug.
as §2

[4] = tested on: human cytomegalovirus (HCMV); test: microbe, parasite or virus in culture; format: cell-based, Towne strain; settings: for IC50: Human betaherpesvirus 5, HFF, read-out: HCMV; for antiviral activity against HCMV (in words): comment on Table 1 data
Experimental: as §3
Stock HCMV was prepared by infecting HFF cells at a multiplicity of infection (m.o.i.) of <0.01 plaque-forming units (p.f.u.) per cell. Cell growth medium was changed every four days until cytopathology was evident in all cells (approximately 21 days). Supernatant fluids were retained as the virus stock.
Virus titers were determined using monolayer cultures of HFF cells for HCMV and monolayer cultures of BSC-1 cells for HSV-1 as described earlier [Prichard, M. N., et al., J. Virol. […] Briefly, HFF or BSC-1 cells were planted as described above in 96-well cluster dishes and incubated overnight at 37. degree. C. in a humidified 3% C02 -97% air atmosphere. The next day cultures were inoculated with HCMV or HSV-1 and serially diluted 1:3 across the remaining eleven columns of the 96-well plate. Cultures were incubated at 37. degree. C. for 2 hr to permit virus adsorption and then virus inoculum was replaced with 0.2 ml of fresh medium. Cultures were incubated for seven days for HCMV, two or three days for HSV-1, the medium was removed, and the cell sheets were stained with 0.1% crystal violet in 20% methanol.
HFF cells in 24-well cluster dishes were infected with approximately 100 p.f.u. of HCMV per cm^2 cell sheet using the procedures detailed above. Following virus adsorption, compounds dissolved in growth medium were added to duplicate wells in four to eight selected concentrations. After incubation at 37° C. for 7 to 10 days, cell sheets were fixed, stained with crystal violet and microscopic plaques enumerated as described above.
After virus adsorption, inoculum was replaced with 0.2 mL of fresh medium containing test compounds. The first row of 12 wells was left undisturbed and served as virus controls. Each well in the second row received an additional 0.1 mL of medium with test compound at three times the desired final concentration. The contents of the 12 wells were mixed by repeated pipetting and then serially diluted 1:3 along the remaining wells. In this manner, six compounds could be tested in duplicate on a single plate with concentrations from […]. Plates were incubated at 37° C. for seven days, subjected to one cycle of freezing and thawing; aliquots from each of the eight wells of a given column were transferred to the first column of a fresh 96-well monolayer culture of HFF cells. Contents were mixed and serially diluted 1:3 across the remaining eleven columns of the secondary plate. Each column of the original primary plate was diluted across a separate plate in this manner. Cultures were incubated, plaques were enumerated, and titers calculated as described above.
as §2

[5] = Table 1, cytotoxicity, KB cell growth, 48 hours
[6] = Table 1, cytotoxicity, stationary HFF cells, visual
[7] = Human alphaherpesvirus 1, 72 h, Table 1, fifty-percent inhibitory concentration, ELISA, BSC-1 cells, 3-day incubation
[8] = Human alphaherpesvirus 1, BSC-1, 72 h

| Structure (SMILES) | IC50 [1, 5] | IC50 [2, 6] | IC50 [3, 7] | IC50 [4] | antiviral activity against HCMV (in words) [4] | IC50 ([1]; KB, 48 h) | IC50 ([2]; HFF) | IC50 [3, 8] |
| --- | --- | --- | --- | --- | --- | --- | --- | --- |
| N#Cc1c(N)n(Cc2ccc(F)cc2)c2ncnc(N)c12 [Compound 1365, 4,6-diamino-7-(4-flourobenzyl)-pyrrolo[2,3-d]pyrimidine-5-carbonitrile] | 60 µM | > 100 µM | 33 µM | 0.3 µM | good to excellent antiviral activity |  |  |  |
| N#Cc1cn(CCc2ccccc2)c2ncnc(N)c12 [Compound 1368, 4-amino-7-(2-phenyl)ethyl-pyrrolo[2,3-d]pyrimidine-5-carbonitrile] | > 100 µM | 32 µM | 10 µM | 0.7 µM | excellent activity |  |  |  |
| N#Cc1c(N)n(CCc2ccccc2)c2ncnc(N)c12 [Compound 1369, 4,6-diamino-7-(2-phenyl)ethyl-pyrrolo[2,3-d]pyrimidine-5-carbonitrile] | 82 µM | 100 µM | 0.3 µM | < 0.1 µM | excellent activity |  |  |  |
| N#Cc1cn(CC=Cc2ccccc2)c2ncnc(N)c12 [Compound 1372, 4-amino-7-(3-phenyl)prop-2-enyl-pyrrolo[2,3-d]pyrimidine-5-carbonitrile] | > 100 µM | > 10 µM | > 100 µM | > 10 µM |  |  |  |  |
| N#Cc1c(Br)n(Cc2ccc(Br)cc2)c2ncnc(N)c12 [Compound 1373, 4-amino-6-bromo-7-(4-bromobenzyl)-pyrrolo[2,3-d]pyrimidine-5-carbonitrile] | > 100 µM | 10.5 µM | > 100 µM | 10.5 µM |  |  |  |  |
| N#Cc1c(Br)n(Cc2cccc([N+](=O)[O-])c2)c2ncnc(N)c12 [Compound 1374, 4-amino-6-bromo-7-(3-nitrobenzyl)-pyrrolo[2,3-d]pyrimidine-5-carbonitrile] | > 100 µM | > 10 µM | > 100 µM | > 10 µM |  |  |  |  |
| NC(=O)c1cn(CCCc2ccccc2)c2ncnc(N)c12 [Compound 1376, 4-amino-7-(3-phenyl)propyl-pyrrolo[2,3-d]pyrimidine-5-carboxamide] | 70 µM | 100 µM | 35 µM | 28 µM |  |  |  |  |
| N#Cc1cn(Cc2cccc([N+](=O)[O-])c2)c2ncnc(N)c12 [Compound 1382, 4-amino-7-(3-nitrobenzyl)-pyrrolo[2,3-d]pyrimidine-5-carbonitrile] | > 100 µM | > 10 µM | > 100 µM | > 10 µM |  |  |  |  |
| N#Cc1c(Br)n(Cc2ccc(Cl)cc2)c2ncnc(N)c12 [Compound 1388, 4-amino-6-bromo-7-(4-chlorobenzyl)-pyrrolo[2,3-d]pyrimidine-5-carbonitrile] | > 100 µM | 116 µM | > 100 µM | 116 µM |  |  |  |  |
| N#Cc1c(N)n(Cc2ccc(Br)cc2)c2ncnc(N)c12 [Compound 1389, 4,6-diamino-7-(4-bromobenzyl)-pyrrolo[2,3-d]pyrimidine-5-carbonitrile] | 15 µM | > 10 µM | > 100 µM | 0.2 µM | good to excellent antiviral activity |  |  |  |
| NC(=O)c1cn(CCc2ccccc2)c2ncnc(N)c12 [Compound 1396, 4-amino-7-(2-phenyl)ethyl-pyrrolo[2,3-d]pyrimidine-5-carboxamide] | 40 µM | > 100 µM | 45 µM | 17 µM |  |  |  |  |
| NC(=O)c1c(Br)n(CCc2ccccc2)c2ncnc(N)c12 [Compound 1409, 4-amino-6-bromo-7-(2-phenyl)ethyl-pyrrolo[2,3-d]pyrimidine-5-carboxamide] | > 100 µM | > 100 µM | > 100 µM | 100 µM | lost |  |  |  |
| NC(=O)c1cn(Cc2ccc([N+](=O)[O-])cc2)c2ncnc(N)c12 [Compound 1412, 4-amino-7-(4-nitrobenzyl)-pyrrolo[2,3-d]pyrimidine-5-carboxamide] |  |  |  | 5 µM | good to excellent antiviral activity | > 100 µM | 100 µM | 45 µM |
| NC(=S)c1cn(CCCc2ccccc2)c2ncnc(N)c12 [Compound 1413, 4-amino-7-(3-phenyl)propyl-pyrrolo[2,3-d]pyrimidine-5-thiocarboxamide] | 38 µM | 32 µM | 1.5 µM | 0.5 µM | excellent activity |  |  |  |
| CC(c1ccccc1)n1cc(C#N)c2c(N)ncnc21 (stereo not shown) [Compound 1414, 4-amino-7-((2-phenyl)eth-2-yl)-pyrrolo[2,3-d]pyrimidine-5-carbonitrile] | 20 µM | > 120 µM | 45 µM | 17 µM |  |  |  |  |
| NC(=O)c1cn(Cc2ccc(F)cc2)c2ncnc(N)c12 [Compound 1419, 4-amino-7-(4-fluorobenzyl)-pyrrolo[2,3-d]pyrimidine-5-carboxamide] |  |  |  | 4.2 µM | good to excellent antiviral activity | 50 µM | 100 µM | 16 µM |
| NC(=O)c1cn(Cc2cccc([N+](=O)[O-])c2)c2ncnc(N)c12 [Compound 1421, 4-amino-7-(3-nitrobenzyl)-pyrrolo[2,3-d]pyrimidine-5-carboxamide] |  |  |  | 42 µM |  | > 100 µM | > 100 µM | > 100 µM |
| N#Cc1c(N)n(Cc2cccc([N+](=O)[O-])c2)c2ncnc(N)c12 [Compound 1425, 4,6-diamino-7-(3-nitrobenzyl)-pyrrolo[2,3-d]pyrimidine-5-carbonitrile] | > 100 µM | > 100 µM | > 100 µM | 5 µM | Some activity |  |  |  |
| Cc1ccc(Cn2c(Br)c(C(N)=O)c3c(N)ncnc32)cc1 [Compound 1427, 4-amino-6-bromo-7-(4-methylbenzyl)-pyrrolo[2,3-d]pyrimidine-5-carboxamide] |  |  |  | > 10 µM |  | > 100 µM | > 10 µM | > 100 µM |
